Read-outs that look alike come from different tables or passages of the source.
Key:
[1] = tested on: BT-549; test: NCI five-dose assay; format: cell-based, human; settings: Breast Cancer BT-549
[2] = tested on: NCI-H322M; test: NCI five-dose assay; format: cell-based, human; settings: Non-Small-Cell Lung Cancer NCI-H322M
[3] = tested on: 786-0; test: NCI five-dose assay; format: cell-based; settings: Renal Cancer 786-0
[4] = tested on: COLO 205; test: NCI five-dose assay; format: cell-based, human; settings: Colon Cancer COLO 205
[5] = tested on: A498; test: NCI five-dose assay; format: cell-based; settings: Renal Cancer A498
[6] = tested on: Renal Cancer subpanel; test: NCI five-dose assay, subpanel; format: cell-based, human
Description: (§1) The outcomes were used to form log concentration vs. percentage growth inhibition curves and three response parameters (GI50, total growth inhibition (TGI), and LC50) were calculated for each cell line (Table 2).
(§2) The criterion for selectivity of a compound depends upon the ratio obtained by dividing the full-panel MID (the average sensitivity of all cell lines toward the test agent) (μM) by the individual subpanel MIDs (μM).

[7] = tested on: Prostate Cancer subpanel; test: NCI five-dose assay, subpanel; format: cell-based, human
Description: as §1, §2

[8] = tested on: Leukemia subpanel; test: NCI five-dose assay, subpanel; format: cell-based, human; settings: for GI50: Homo sapiens
Description: as §1, §2

[9] = tested on: CNS Cancer subpanel; test: NCI five-dose assay, subpanel; format: cell-based, human
Description: as §1, §2

[10] = tested on: Ovarian Cancer subpanel; test: NCI five-dose assay, subpanel; format: cell-based, human; settings: for GI50: Homo sapiens
Description: as §1, §2

[11] = tested on: Colon Cancer subpanel; test: NCI five-dose assay, subpanel; format: cell-based, human; settings: for GI50: Homo sapiens
Description: as §1, §2

[12] = tested on: Melanoma subpanel; test: NCI five-dose assay, subpanel; format: cell-based, human
Description: as §1, §2

[13] = tested on: Breast Cancer subpanel; test: NCI five-dose assay, subpanel; format: cell-based, human; settings: for GI50: Homo sapiens
Description: as §1, §2

[14] = tested on: Non-Small-Cell Lung Cancer subpanel; test: NCI five-dose assay, subpanel; format: cell-based, human
Description: as §1, §2

[15] = tested on: SK-MEL-5; test: NCI five-dose assay; format: cell-based; settings: Melanoma SK-MEL-5
[16] = tested on: HCC-2998; test: NCI five-dose assay; format: cell-based; settings: Colon Cancer HCC-2998
[17] = tested on: NCI-H226; test: NCI five-dose assay; format: cell-based; settings: Homo sapiens, Non-Small-Cell Lung Cancer NCI-H226
[18] = tested on: MCF7; test: NCI five-dose assay; format: cell-based, human; settings: Breast Cancer MCF7
[19] = tested on: OVCAR-3; test: NCI five-dose assay
[20] = tested on: NCI/ADR-RES; test: NCI five-dose assay; format: cell-based; settings: Homo sapiens, Ovarian Cancer NCI/ADR-RES
[21] = tested on: KM12; test: NCI five-dose assay; format: cell-based; settings: Colon Cancer KM12
[22] = tested on: SR; test: NCI five-dose assay; format: cell-based; settings: Leukemia SR
[23] = tested on: MALME-3M; test: NCI five-dose assay; format: cell-based; settings: Homo sapiens, Melanoma MALME-3M
[24] = tested on: HOP-62; test: NCI five-dose assay; format: cell-based, human; settings: Non-Small-Cell Lung Cancer HOP-62
[25] = tested on: TK-10; test: NCI five-dose assay; format: cell-based, human; settings: Renal Cancer TK-10
[26] = tested on: ACHN; test: NCI five-dose assay; format: cell-based; settings: Renal Cancer ACHN
[27] = Homo sapiens, read-out: GI50 Concentration/Cell Line
[28] = Homo sapiens, read-out: LC50 (the source's name)
[29] = Non-Small-Cell Lung Cancer subpanel
[30] = read-out: GI50 Concentration/Cell Line

**Q.** Which results are given for `COC(=O)C=C1SC(=NNC(=O)c2cc3ccc2CCc2ccc(cc2)CC3)N(c2ccccc2)C1=O` [Compound 3a]?
**A.** TGI Concentration/Cell Line [1]: 5.35 µM; GI50 [1, 27]: 2220 nM; GI50 [2, 27]: 2020 nM; TGI Concentration/Cell Line [2]: 4.75 µM; GI50 [3, 27]: 2000 nM; CC50 [3, 28]: 9.58 µM; TGI Concentration/Cell Line [3]: 4.38 µM; TGI Concentration/Cell Line [4]: 4.61 µM; GI50 [4, 27]: 2130 nM; CC50 [5, 28]: > 100 µM; TGI Concentration/Cell Line [5]: 8.36 µM; GI50 ([6]; Homo sapiens, Renal Cancer subpanel average, read-out: GI50 Subpanel MID^b): 1860 nM; GI50 Selectivity Ratio (MID^a: MID^b) ([6]; Renal Cancer subpanel): 1.28; TGI Selectivity Ratio (MID^c: MID^d) ([6]; Renal Cancer subpanel): 1.27; TGI Subpanel MID^d ([6]; Renal Cancer subpanel average): 16.6 µM; GI50 ([7]; Homo sapiens, Prostate Cancer subpanel average, read-out: GI50 Subpanel MID^b): 3.41 µM; GI50 Selectivity Ratio (MID^a: MID^b) ([7]; Prostate Cancer subpanel): 0.69; TGI Selectivity Ratio (MID^c: MID^d) ([7]; Prostate Cancer subpanel): 5.89; TGI Subpanel MID^d ([7]; Prostate Cancer subpanel average): 3.58 µM; GI50 ([8]; Leukemia subpanel average, read-out: GI50 Subpanel MID^b): 2720 nM; GI50 ([8]; leukemia subpanel, read-out: GI50 values range, subpanel): 2150 to 3150 nM; GI50 Selectivity Ratio (MID^a: MID^b) ([8]; Leukemia subpanel): 0.88; TGI Subpanel MID^d ([8]; Leukemia subpanel average): 81.1 µM; GI50 Selectivity Ratio (MID^a: MID^b) ([9]; CNS Cancer subpanel): 0.88; TGI Selectivity Ratio (MID^c: MID^d) ([9]; CNS Cancer subpanel): 1.08; TGI Subpanel MID^d ([9]; CNS Cancer subpanel average): 19.5 µM; GI50 ([9]; Homo sapiens, CNS Cancer subpanel average, read-out: GI50 Subpanel MID^b): 2710 nM; GI50 ([10]; Ovarian Cancer subpanel average, read-out: GI50 Subpanel MID^b): 2590 nM; GI50 ([10]; ovarian cancer subpanel, read-out: GI50 values range, subpanel): 1660 to 3550 nM; GI50 Selectivity Ratio (MID^a: MID^b) ([10]; Ovarian Cancer subpanel): 0.92; TGI Selectivity Ratio (MID^c: MID^d) ([10]; Ovarian Cancer subpanel): 1.14; TGI Subpanel MID^d ([10]; Ovarian Cancer subpanel average): 18.5 µM; GI50 Selectivity Ratio (MID^a: MID^b) ([11]; Colon Cancer subpanel): 1.24; TGI Selectivity Ratio (MID^c: MID^d) ([11]; Colon Cancer subpanel): 5.34; TGI Subpanel MID^d ([11]; Colon Cancer subpanel average): 3.95 µM; GI50 ([11]; Colon Cancer subpanel average, read-out: GI50 Subpanel MID^b): 1910 nM; GI50 ([11]; colon cancer subpanel, read-out: GI50 values range, subpanel): 1780 to 2130 nM; GI50 ([12]; Homo sapiens, Melanoma subpanel average, read-out: GI50 Subpanel MID^b): 3.77 µM; GI50 Selectivity Ratio (MID^a: MID^b) ([12]; Melanoma subpanel): 0.63; TGI Selectivity Ratio (MID^c: MID^d) ([12]; Melanoma subpanel): 0.58; TGI Subpanel MID^d ([12]; Melanoma subpanel average): 36.5 µM; GI50 Selectivity Ratio (MID^a: MID^b) ([13]; Breast Cancer subpanel): 1.05; TGI Selectivity Ratio (MID^c: MID^d) ([13]; Breast Cancer subpanel): 0.87; TGI Subpanel MID^d ([13]; Breast Cancer subpanel average): 24.3 µM; GI50 ([13]; Breast Cancer subpanel average, read-out: GI50 Subpanel MID^b): 2270 nM; GI50 ([13]; breast cancer subpanel, read-out: GI50 values range, subpanel): 1540 to 1870 nM; GI50 ([14]; Homo sapiens, Non-Small-Cell Lung Cancer subpanel average, read-out: GI50 Subpanel MID^b): 2740 nM; GI50 Selectivity Ratio (MID^a: MID^b) [14, 29]: 0.87; TGI Selectivity Ratio (MID^c: MID^d) [14, 29]: 1.31; TGI Subpanel MID^d ([14]; Non-Small-Cell Lung Cancer subpanel average): 16.1 µM; LC50 ([15]; Homo sapiens): > 100 µM; GI50 [15, 27]: 7.56 µM; TGI Concentration/Cell Line [15]: >100 µM; TGI Concentration/Cell Line [16]: 3.45 µM; LC50 ([16]; Homo sapiens): 6.68 µM; GI50 [16, 27]: 1780 nM; LC50 (concentration killing 50% of tumour cells) [17]: > 100 µM; GI50 [17, 30]: 4.38 µM; TGI Concentration/Cell Line [18]: 4.95 µM; GI50 [18, 27]: 1870 nM; GI50 ([19]; Homo sapiens, OVCAR-3, read-out: GI50 Concentration/Cell Line): 1800 nM; CC50 ([19]; Homo sapiens, OVCAR-3, read-out: LC50): 7.23 µM; TGI Concentration/Cell Line ([19]; Ovarian Cancer OVCAR-3): 3.61 µM; LC50 [20]: > 100 µM; GI50 [20, 30]: 2920 nM; TGI Concentration/Cell Line [21]: 4.15 µM; GI50 [21, 27]: 2030 nM; CC50 [21, 28]: 8.51 µM; GI50 [22, 27]: 2460 nM; CC50 [22, 28]: > 100 µM; TGI Concentration/Cell Line [22]: >100 µM; GI50 [23, 30]: 3.27 µM; CC50 ([23]; read-out: LC50 (the source's name)): > 100 µM; GI50 [24, 27]: 2680 nM; TGI Concentration/Cell Line [24]: 6.97 µM; GI50 [25, 27]: 2030 nM; TGI Concentration/Cell Line [25]: 5.60 µM; GI50 [26, 27]: 1780 nM; CC50 [26, 28]: 6.08 µM; TGI Concentration/Cell Line [26]: 3.29 µM
